The text below walks through data of ChEMBL document CHEMBL1201862, “PubChem BioAssay data set” (2004).

Test systems include HCC 2998; SK-MEL-28; HOP-62; SNB-75; NCI-H522; UO-31; HCT-116; LXFL 529; SNB-19; TK-10; OVCAR-3; NCI-H23; U-251; OVCAR-4; OVCAR-5; UACC-257; UACC-62; HOP-92; RPMI-8226; BT-549.
Test in all cases: growth of human tumour cells (NCI), 48 h

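Results reflect a 48-hour exposure of cells in 96-well plates to compound at five concentrations. GI50 is the concentration that inhibits growth by half.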 Activity calls are given as the source filed them. Rule as the data show it: active = GI50 up to about 1.1 µM and inactive = higher.

As to `COc1ccccc1NC(=O)C(=O)C1C(=O)Nc2ccccc2[S+]1[O-]` (stereo not drawn), the GI50 with HCC 2998, in the assay on SK-MEL-28, in the assay on HOP-62, in the assay on SNB-75, in the assay on NCI-H522 and in the assay with UO-31 was > 100 µM (inactive) in each case. Further, the GI50 in the assay on HCT-116, with LXFL 529, in the assay with SNB-19, with TK-10, in the assay on OVCAR-3 and in the assay on NCI-H23 was > 100 µM (inactive) in each case. The GI50 in the assay with U-251, in the assay on OVCAR-4, in the assay on OVCAR-5, with UACC-257 and in the assay with UACC-62 was > 100 µM (inactive) in each case.
`Cc1cc(C)c2c(c1C)CN1CN2Cc2c(C)c(C)cc(C)c21`: the GI50 in the assay on HOP-92 was 67.1 µM (inactive); in the assay with SK-MEL-28, > 100 µM (inactive); in the assay on HOP-62, > 100 µM (inactive); in the assay with SNB-75, 21 µM (inactive); in the assay with NCI-H522 it was > 100 µM (inactive); in the assay on UO-31, > 100 µM (inactive). Further, the GI50 in the assay with RPMI-8226 was > 100 µM (inactive); with HCT-116, > 100 µM (inactive); with LXFL 529, 8.15 µM (inactive); in the assay with SNB-19 it was < 0.01 µM (active); in the assay on TK-10 it was > 100 µM (inactive); in the assay with OVCAR-3, 18.9 µM (inactive). For the same molecule, the GI50 in the assay on NCI-H23 was 6.84 µM (inactive); with U-251 it was 5.18 µM (inactive); with OVCAR-4, 7.98 µM (inactive); with OVCAR-5 it was > 100 µM (inactive); in the assay with UACC-62 it was > 100 µM (inactive).
As to `N#CC1CCCCC1NC1(C#N)CCCCC1` (stereo not drawn), the GI50 in the assay on HCC 2998, with SK-MEL-28, with HOP-62, in the assay on SNB-75, in the assay with NCI-H522 and in the assay on UO-31 was > 100 µM (inactive) each time. In addition, the GI50 with RPMI-8226, in the assay on LXFL 529, in the assay on SNB-19, with TK-10, with OVCAR-3 and in the assay on NCI-H23 was > 100 µM (inactive) throughout. In addition, the GI50 with U-251, in the assay on UACC-257 and in the assay with UACC-62 was > 100 µM (inactive) throughout.
For `COC(=O)C(C(=O)C(=O)Nc1ccccc1C)c1nc2ccc([N+](=O)[O-])cc2nc1O` (stereo not drawn), the GI50 in the assay with HCC 2998 is > 100 µM (inactive); in the assay on SK-MEL-28, > 100 µM (inactive); in the assay on HOP-62, > 100 µM (inactive); with SNB-75, > 100 µM (inactive); in the assay on NCI-H522, 47.3 µM (inactive); in the assay on UO-31, > 100 µM (inactive). Moreover, the GI50 with RPMI-8226, in the assay with HCT-116, in the assay on LXFL 529, with SNB-19, in the assay with TK-10 and in the assay with OVCAR-3 was > 100 µM (inactive) in each case. Besides, the GI50 with NCI-H23, with U-251, with OVCAR-4, in the assay with OVCAR-5, in the assay on UACC-257 and in the assay with UACC-62 was > 100 µM (inactive) in each case.
On to `CCCCCCc1cc2c(C)c(C)c(=O)oc2cc1OCCCOc1cc2oc(=O)c(C)c(C)c2cc1CCCCCC`, for which the GI50 in the assay on HOP-92, with SK-MEL-28, in the assay on HOP-62, in the assay with NCI-H522, in the assay with UO-31 and with RPMI-8226 was > 100 µM (inactive) in each case. Moreover, the GI50 in the assay with HCT-116, in the assay with LXFL 529, in the assay with SNB-19, with TK-10, in the assay on OVCAR-3 and in the assay with NCI-H23 was > 100 µM (inactive) in each case. For the same molecule, the GI50 in the assay with U-251, in the assay with OVCAR-5, in the assay on UACC-257 and with UACC-62 was > 100 µM (inactive) each time.
On to `CCOC(=O)C(C)(C)Oc1ccc2c(C)c(-c3ccc(Cl)cc3)c(=O)oc2c1`, for which the GI50 was 59 µM (inactive) with HCC 2998; > 100 µM (inactive) in the assay on SK-MEL-28; 89.1 µM (inactive) in the assay with HOP-62; 35.8 µM (inactive) with SNB-75; 55.5 µM (inactive) with UO-31; 22.6 µM (inactive) with RPMI-8226. For the same molecule, the GI50 was 43 µM (inactive) with HCT-116; 34.1 µM (inactive) in the assay with LXFL 529; 51.1 µM (inactive) with SNB-19; > 100 µM (inactive) with TK-10; 85.1 µM (inactive) in the assay on OVCAR-3; 19.6 µM (inactive) with NCI-H23. In addition, the GI50 is 42.4 µM (inactive) in the assay on U-251, > 100 µM (inactive) in the assay with OVCAR-4, 43.8 µM (inactive) with UACC-257 and 32.5 µM (inactive) with UACC-62.
Turning to `CSc1ccc2c(cc1=O)[C@@H](NC(=O)c1cc(O)c(O)c(O)c1)CCc1cc(O)c(O)c(O)c1-2`, the GI50 in the assay with HCC 2998 is > 100 µM (inactive); with SK-MEL-28, 32.3 µM (inactive); in the assay with HOP-62, 49.5 µM (inactive); in the assay on SNB-75, 23.4 µM (inactive); in the assay on NCI-H522, 21.4 µM (inactive); in the assay on UO-31, 25.9 µM (inactive). The GI50 in the assay with HCT-116 is 16 µM (inactive); in the assay with LXFL 529 it was 18.9 µM (inactive); with SNB-19, 81.3 µM (inactive); in the assay with TK-10, 41.6 µM (inactive); in the assay on OVCAR-3 it was 31 µM (inactive); in the assay with NCI-H23, 20 µM (inactive). For the same molecule, the GI50 in the assay on U-251 was 18.6 µM (inactive); in the assay on OVCAR-4 it was 8.93 µM (inactive); in the assay on OVCAR-5 it was 15 µM (inactive); in the assay with UACC-257, 18 µM (inactive); in the assay on UACC-62, 19.2 µM (inactive).
For the molecule `NC(=O)COc1ccc(Br)cc1Br`, the GI50 was > 100 µM (inactive) with HOP-92; > 100 µM (inactive) in the assay with SK-MEL-28; > 100 µM (inactive) with HOP-62; 52.1 µM (inactive) in the assay on SNB-75; > 100 µM (inactive) in the assay with NCI-H522; > 100 µM (inactive) in the assay with UO-31. Also, the GI50 in the assay on RPMI-8226 is 51.9 µM (inactive); in the assay on HCT-116, > 100 µM (inactive); with LXFL 529, > 100 µM (inactive); with SNB-19 it was > 100 µM (inactive); with OVCAR-3 it was > 100 µM (inactive); in the assay on NCI-H23, > 100 µM (inactive). In addition, the GI50 with U-251, in the assay with OVCAR-5 and in the assay on UACC-257 was > 100 µM (inactive) each time.
As for `CCCC(=O)Nc1ncnc2c1ncn2C1OC2COP(=O)(O)OC2C1OC(=O)CCC` (stereo not drawn), the GI50 in the assay with HOP-92 is > 1000 µM (inactive); in the assay on HCC 2998, > 100 µM (inactive); with SK-MEL-28 it was > 100 µM (inactive); in the assay on BT-549 it was > 1000 µM (inactive); in the assay with HOP-62, > 100 µM (inactive); in the assay with SNB-75, 0.0246 µM (active). For the same molecule, the GI50 in the assay with NCI-H522 is > 100 µM (inactive); in the assay with UO-31, 312 µM (inactive); in the assay with RPMI-8226, > 1000 µM (inactive); in the assay with HCT-116 it was > 100 µM (inactive); in the assay with SNB-19, > 100 µM (inactive); in the assay on TK-10, > 1000 µM (inactive). The GI50 in the assay on OVCAR-3, with NCI-H23, in the assay on U-251, in the assay on OVCAR-4, in the assay with OVCAR-5 and in the assay with UACC-257 was > 100 µM (inactive) each time. The GI50 in the assay on UACC-62 is > 100 µM (inactive).
As for `NNC(=O)CC(=O)Nc1ccc(Cl)cc1`, the GI50 in the assay on HOP-92, in the assay on HCC 2998, in the assay on SK-MEL-28, with BT-549, in the assay on HOP-62 and in the assay with SNB-75 was > 100 µM (inactive) throughout. Further, the GI50 in the assay with NCI-H522, in the assay with UO-31, with RPMI-8226, in the assay with HCT-116, in the assay with SNB-19 and in the assay with TK-10 was > 100 µM (inactive) throughout. Also, the GI50 in the assay on OVCAR-3, with NCI-H23, in the assay on U-251, in the assay with OVCAR-4, with OVCAR-5 and in the assay on UACC-257 was > 100 µM (inactive) in each case. For the same molecule, the GI50 in the assay with UACC-62 was > 100 µM (inactive).
For `CC(=O)NNc1nc(C)c(C(/C=C/c2ccc3c(c2)OCO3)=N/NC(=O)c2ccncc2)s1`, the GI50 in the assay with HOP-92, with HCC 2998, in the assay on SK-MEL-28, in the assay on BT-549, with HOP-62 and in the assay with SNB-75 was > 100 µM (inactive) each time. Besides, the GI50 with NCI-H522, in the assay on UO-31, with RPMI-8226, in the assay with HCT-116, in the assay with SNB-19 and with TK-10 was > 100 µM (inactive) in each case. Moreover, the GI50 in the assay with OVCAR-3, with NCI-H23, in the assay with U-251, with OVCAR-4, with OVCAR-5 and in the assay with UACC-257 was > 100 µM (inactive) each time. The GI50 with UACC-62 is > 100 µM (inactive).
